# Measured values: BindingDB's records for PubMed 3033464 (Burroughs Wellcome, 1987)
# “And” between values parts separate entries of the source, which are not always exact repeats. Identical values can stand only once. Where a SMILES comes first, the peptide text is derived from it.
# Molecular target: Mu-type opioid receptor (Rattus norvegicus, UniProt P33535)
# Sequence (P33535 whole entry): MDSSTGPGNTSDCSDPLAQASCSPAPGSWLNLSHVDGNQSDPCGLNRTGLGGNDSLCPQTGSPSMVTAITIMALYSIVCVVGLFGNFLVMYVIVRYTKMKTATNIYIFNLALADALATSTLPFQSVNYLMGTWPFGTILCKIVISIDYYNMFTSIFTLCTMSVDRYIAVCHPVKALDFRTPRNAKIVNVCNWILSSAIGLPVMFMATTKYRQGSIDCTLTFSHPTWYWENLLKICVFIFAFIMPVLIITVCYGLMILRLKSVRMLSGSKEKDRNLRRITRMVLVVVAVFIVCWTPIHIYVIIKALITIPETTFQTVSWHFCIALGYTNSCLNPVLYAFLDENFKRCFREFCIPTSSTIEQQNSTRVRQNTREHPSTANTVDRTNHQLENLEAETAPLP
row,Compound,Ki
1,CC(C)[C@H](NC(=O)[C@H](Cc1ccccc1)NC(=O)[C@@H]1CCCN1C(=O)[C@@H](N)Cc1ccc(O)cc1)C(N)=O (H-YPFV-NH2),37 nM and 16.1 nM
2,NC(=O)[C@@H]1CCCN1C(=O)[C@H](Cc1ccccc1)NC(=O)[C@@H]1CCCN1C(=O)[C@@H](N)Cc1ccc(O)cc1 [CAS_79805-24-6] (H-YPFP-NH2),1160 nM
3,NC(=O)[C@@H]1CCCN1C(=O)[C@@H](Cc1ccccc1)NC(=O)[C@@H]1CCCN1C(=O)[C@@H](N)Cc1ccc(O)cc1 [Morphiceptin] (HELM PEPTIDE1{Y.P.[dF].P.[am]}$$$$V2.0),63 nM and 34.9 nM
